Measured values published in ChEMBL document CHEMBL6103573, “Discovery of novel thienopyridine indole derivatives as inhibitors of tubulin polymerization targeting the colchicine-binding site with potent anticancer activities” (Eur J Med Chem, 2025).
Calls of active or inactive are those of the source. The calls are words filed in the database; no cut-off is given here.

Assays:
MGC-803 [1] = assay: Antiproliferative activity against human MGC-803 cells assessed as inhibition of cell proliferation incubated for 48 hrs by MTT assay; assay type: functional, cell-based; details: MGC-803, 48 h
MGC-803 [2] = assay: Induction of apoptosis in human MGC-803 cells assessed as increase in cleaved PARP expression at 0.25 to 2.0 nmol/L incubated for 48 hrs by Western blotting analysis; assay type: functional, cell-based; details: dose 0.25-2 nmol/L
NCI-N87 = assay: Antiproliferative activity against human NCI-N87 cells assessed as inhibition of cell proliferation incubated for 48 hrs by MTT assay; assay type: functional, cell-based; details: NCI-N87, 48 h
MGC-803 [3] = assay: Induction of apoptosis in human MGC-803 cells assessed as early apoptotic cells at 0.25 nmol/L incubated for 48 hrs by Annexin V-FITC/propidium iodide staining based flow cytometry analysis (reference value: 0.83 %); assay type: functional
[4] = biological target: T1, Tubulin beta (Homo sapiens) (UniProt P68371+Q9H4B7+Q13509+P04350+Q3ZCM7+P07437+Q13885+Q9BVA1+Q9BUF5+A6NNZ2); assay: (§1) Competitive binding affinity to beta-tubulin colchicine binding site in human HGC-27 cells assessed as inhibition of EBI-beta-tubulin adduct band formation at 1 umol/L preincubated for 2 hrs followed by EBI addition and measured after 2 hrs by Western blotting analysis; assay type: cell-based; details: dose 1.0 µmol/L, time 4.0 hrs
HGC-27 [5] = assay: Antiproliferative activity against human HGC-27 cells by MTT assay; assay type: functional, cell-based; details: dose 0.25-2 nmol/L
MGC-803 [6] = assay: Antiproliferative activity against human MGC-803 cells assessed as reduction in cell viability at 0.25 to 2.0 nmol/L by MTT assay; assay type: functional, cell-based; details: dose 0.25-2 nmol/L, time 6-48 hrs
HGC-27 [7] = assay: Induction of apoptosis in human HGC-27 cells assessed as nuclei shrinkage at 0.25 to 2.0 nmol/L incubated for 48 hrs by DAPI staining based analysis; assay type: functional, cell-based; details: dose 0.25-2 nmol/L
MGC-803 [8] = assay: Induction of apoptosis in human MGC-803 cells assessed as increase in total apoptotic rate at 2 nmol/L incubated for 48 hrs by Annexin V-FITC/propidium iodide staining based flow cytometry analysis relative to control; assay type: functional
HGC-27 [9] = assay: Induction of apoptosis in human HGC-27 cells incubated for 48 hrs by Annexin V-FITC/propidium iodide staining based flow cytometry analysis; assay type: functional, cell-based; details: dose 0.25-2 nmol/L
Tubulin (Homo sapiens) [10] = biological target: T2, Tubulin (Homo sapiens) (UniProt P68371+Q9H4B7+P0DPH7+P68366+Q13509+Q71U36+P04350+Q3ZCM7+P07437+P68363+Q9BQE3+Q6PEY2+Q13885+Q9BVA1+Q9BUF5); assay: Disruption of microtubule network in human MGC-803 cells assessed as appearance of multinucleation at 0.25 to 2.0 nmol/L incubated for 24 hrs by DAPI staining based fluorescence microscopic analysis; assay type: cell-based; details: dose 0.25-2 nmol/L
HUVEC [11] = assay: Anti-angiogenesis activity in HUVEC cells assessed as reduction in cell viability by measuring survival rate at 2 nmol/L incubated for 48 hrs by MTT assay relative to control; assay type: functional; details: Homo sapiens, read-out: Survival
MGC-803 [12] = assay: Antiproliferative activity against human MGC-803 cells assessed as cell viability at 1 to 2 nmol/L incubated for 48 hrs by MTT assay (reference value: 92 %); assay type: functional; details: dose 1-2 nmol/L, at 1 to 2 nM
MGC-803 [13] = assay: Induction of apoptosis in human MGC-803 cells assessed as early apoptotic cells at 1.0 nmol/L incubated for 48 hrs by Annexin V-FITC/propidium iodide staining based flow cytometry analysis (reference value: 0.83 %); assay type: functional
MGC-803 [14] = assay: Induction of apoptosis in human MGC-803 cells assessed as late apoptotic cells at 1.0 nmol/L incubated for 48 hrs by Annexin V-FITC/propidium iodide staining based flow cytometry analysis (reference value: 2.22 %); assay type: functional
[15] = Toxicity in female BALB/c-nu nude mouse xenografted with human MGC-803 cells assessed as change in spleen morphology at 5 mg/kg, po administrated every other day for 11 times and measured after 21 days by hematoxylin and eosin staining based analysis; assay type: organism-based; details: in vivo, 504 h, time 21 day
HGC-27 [16] = assay: Antiproliferative activity against human HGC-27 cells assessed as survival rate at 2 nmol/L measured after 6 hrs by MTT assay relative to control; assay type: functional; details: read-out: Survival
MGC-803 [17] = assay: Antiproliferative activity against human MGC-803 cells assessed as survival rate at 2 nmol/L measured after 48 hrs by MTT assay relative to control; assay type: functional; details: read-out: Survival
HGC-27 [18] = assay: Anti-migratory activity against human HGC-27 cells assessed as decrease in cell migration at 1 nmol/L measured after 24 hrs by wound healing assay relative to control; assay type: functional; design: scale not given: the % may be the effect or the level left
MGC-803 [19] = assay: Induction of apoptosis in human MGC-803 cells assessed as total apoptotic rate at 2 nmol/L incubated for 48 hrs by Annexin V-FITC/propidium iodide staining based flow cytometry analysis relative to control; assay type: functional
MGC-803 [20] = assay: Antitumor activity against human MGC-803 cells xenografted in female BALB/c-nu nude mouse assessed as reduction in Ki67 expression in tumor at 5 mg/kg, po administrated […] for 11 times and measured after 21 days by immunohistochemical analysis; assay type: functional, organism-based; details: time 21.0 day
HGC-27 [21] = assay: Induction of apoptosis in human HGC-27 cells assessed as increase in cleaved PARP expression at 0.25 to 2.0 nmol/L incubated for 48 hrs by Western blotting analysis; assay type: functional, cell-based; details: dose 0.25-2 nmol/L
MGC-803 [22] = assay: Antitumor activity against human MGC-803 cells xenografted in female BALB/c-nu nude mouse assessed as increase in apoptotic cells at 5 mg/kg, po administrated every other day for 11 times and measured after 21 days by TUNEL staining based assay; assay type: functional, organism-based; details: time 21.0 day
HGC-27 [23] = assay: Induction of apoptosis in human HGC-27 cells assessed as late apoptotic cells at 1.0 nmol/L incubated for 48 hrs by Annexin V-FITC/propidium iodide staining based flow cytometry analysis (reference value: 3.70 %); assay type: functional
MGC-803 [24] = assay: Induction of apoptosis in human MGC-803 cells assessed as downregulation of Bcl-2 expression incubated for 48 hrs by Western blotting analysis; assay type: functional, cell-based; details: dose 0.25-2 nmol/L
MGC-803 [25] = assay: Induction of apoptosis in human MGC-803 cells assessed as nuclei shrinkage at 0.25 to 2.0 nmol/L incubated for 48 hrs by DAPI staining based analysis; assay type: functional, cell-based; details: dose 0.25-2 nmol/L
Tubulin (Homo sapiens) [26] = biological target: T2, Tubulin (Homo sapiens); assay: Disruption of microtubule network in human HGC-27 cells assessed as disruption of mitosis at 0.25 to 2.0 nmol/L incubated for 24 hrs by DAPI staining based fluorescence microscopic analysis; assay type: cell-based; details: dose 0.25-2 nmol/L
[27] = biological target: T1, Tubulin beta (Homo sapiens); assay: as §1, with “by measuring reduction in adduct band intensity” for “at 1 umol/L”; assay type: cell-based; details: dose 0.1-1 µmol/L, time 4.0 hrs
HUVEC [28] = assay: Anti-migratory activity against HUVEC cells assessed as wound healing rate at 2.0 nmol/L measured after 24 hrs by wound healing assay (reference value: 97 %); assay type: functional, Homo sapiens
HGC-27 [29] = assay: Induction of apoptosis in human HGC-27 cells assessed as increase in dead to live cells ratio at 0.25 to 2.0 nmol/L incubated for 48 hrs by Calcein-AM/PI staining based analysis; assay type: functional, cell-based; details: dose 0.25-2 nmol/L
[30] = Cytotoxicity against human GES1 cells assessed as inhibition of cell proliferation incubated for 48 hrs by MTT assay; assay type: toxicity, cell-based
HGC-27 [31] = assay: Antiproliferative activity against human HGC-27 cells assessed as cell viability at 0.5 to 2 nmol/L incubated for 48 hrs by MTT assay (reference value: 86 %); assay type: functional; details: dose 0.5-2 nmol/L, at 0.5 to 2 nM

## CN(c1ccc2c(ccn2C)c1)c1nc(N2CCCC2)nc2sccc12
MGC-803 [1]
  IC50: 1.61 nM
MGC-803 [2]
  Activity: Active
NCI-N87
  IC50: 2.14 nM
MGC-803 [3]
  Activity: 1.28%
[4]
  Activity: Active; Stronger Affinity Observed
HGC-27 [5]
  Activity: Dose-dependent-effect
MGC-803 [6]
  Activity: Time-dependent-effect
HGC-27 [7]
  Activity: Active
MGC-803 [8]
  Activity: 60%
HGC-27 [9]
  Activity: Dose-dependent-effect
Tubulin (Homo sapiens) [10]
  Activity: Active
HUVEC [11]
  viability at 0.002 µM: 28.3%
MGC-803 [12]
  Activity: 39%
MGC-803 [13]
  Activity: 16.83%
MGC-803 [14]
  Activity: 3.78%
[15]
  Activity: Non-toxic
HGC-27 [16]
  viability at 0.002 µM: 83%
MGC-803 [17]
  viability at 0.002 µM: 35%
HGC-27 [18]
  Activity: 17%
MGC-803 [19]
  Activity: 63%
MGC-803 [20]
  Activity: Active
HGC-27 [21]
  Activity: Active
MGC-803 [22]
  Activity: Active
HGC-27 [23]
  Activity: 3.98%
MGC-803 [24]
  Activity: Dose-dependent-effect
MGC-803 [25]
  Activity: Active
Tubulin (Homo sapiens) [26]
  Activity: Active
[27]
  Activity: Dose-dependent-effect
HUVEC [28]
  Activity: 44%
HGC-27 [29]
  Activity: Active
[30]
  IC50 at 48 h: 31.1 nM
HGC-27 [31]
  Activity: 38%
